Data on three molecules can be found in paper PMC8387997 (ACS Omega, 2021).

The target in one experiment is SMARCA2B (Homo sapiens, UniProt P51531). Briefly: bromoSCAN. Type of experiment: binding.
In another experiment the target is PB1(2) (Homo sapiens, UniProt Q86U86). Briefly: bromoSCAN. The experiment is classed as binding.
For the next experiment, the target named is PB1(5) (Homo sapiens, UniProt Q86U86). Briefly: bromoSCAN. The experiment is classed as binding. The following applies: for selectivity for PB1(5) over SMARCA2B: from bromoSCAN KD values.
PB1(5), sequence (Q86U86 653-763 limits assumed): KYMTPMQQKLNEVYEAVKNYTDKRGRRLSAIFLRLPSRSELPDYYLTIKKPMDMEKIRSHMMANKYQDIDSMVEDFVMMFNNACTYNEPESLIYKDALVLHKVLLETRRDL
For experiment [1], the system named is panel of 32 bromodomains, including BET bromodomains. Briefly: bromoMAX panel screen, Eurofins. The experiment is classed as binding. The following applies: screened at 10 μM against 32 bromodomains.
In the next experiment the test system is BRD9. Particulars: BRD9 versus other bromodomains; cited from earlier work.

Entries after “also recorded” stand apart in the source; their conditions may differ.

PB1(2), sequence (Q86U86 177-287 limits assumed): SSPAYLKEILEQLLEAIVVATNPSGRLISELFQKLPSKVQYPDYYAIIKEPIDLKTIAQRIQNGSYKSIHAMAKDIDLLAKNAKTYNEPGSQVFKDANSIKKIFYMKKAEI
SMARCA2B, sequence (P51531 1-1572 isoform P51531-2): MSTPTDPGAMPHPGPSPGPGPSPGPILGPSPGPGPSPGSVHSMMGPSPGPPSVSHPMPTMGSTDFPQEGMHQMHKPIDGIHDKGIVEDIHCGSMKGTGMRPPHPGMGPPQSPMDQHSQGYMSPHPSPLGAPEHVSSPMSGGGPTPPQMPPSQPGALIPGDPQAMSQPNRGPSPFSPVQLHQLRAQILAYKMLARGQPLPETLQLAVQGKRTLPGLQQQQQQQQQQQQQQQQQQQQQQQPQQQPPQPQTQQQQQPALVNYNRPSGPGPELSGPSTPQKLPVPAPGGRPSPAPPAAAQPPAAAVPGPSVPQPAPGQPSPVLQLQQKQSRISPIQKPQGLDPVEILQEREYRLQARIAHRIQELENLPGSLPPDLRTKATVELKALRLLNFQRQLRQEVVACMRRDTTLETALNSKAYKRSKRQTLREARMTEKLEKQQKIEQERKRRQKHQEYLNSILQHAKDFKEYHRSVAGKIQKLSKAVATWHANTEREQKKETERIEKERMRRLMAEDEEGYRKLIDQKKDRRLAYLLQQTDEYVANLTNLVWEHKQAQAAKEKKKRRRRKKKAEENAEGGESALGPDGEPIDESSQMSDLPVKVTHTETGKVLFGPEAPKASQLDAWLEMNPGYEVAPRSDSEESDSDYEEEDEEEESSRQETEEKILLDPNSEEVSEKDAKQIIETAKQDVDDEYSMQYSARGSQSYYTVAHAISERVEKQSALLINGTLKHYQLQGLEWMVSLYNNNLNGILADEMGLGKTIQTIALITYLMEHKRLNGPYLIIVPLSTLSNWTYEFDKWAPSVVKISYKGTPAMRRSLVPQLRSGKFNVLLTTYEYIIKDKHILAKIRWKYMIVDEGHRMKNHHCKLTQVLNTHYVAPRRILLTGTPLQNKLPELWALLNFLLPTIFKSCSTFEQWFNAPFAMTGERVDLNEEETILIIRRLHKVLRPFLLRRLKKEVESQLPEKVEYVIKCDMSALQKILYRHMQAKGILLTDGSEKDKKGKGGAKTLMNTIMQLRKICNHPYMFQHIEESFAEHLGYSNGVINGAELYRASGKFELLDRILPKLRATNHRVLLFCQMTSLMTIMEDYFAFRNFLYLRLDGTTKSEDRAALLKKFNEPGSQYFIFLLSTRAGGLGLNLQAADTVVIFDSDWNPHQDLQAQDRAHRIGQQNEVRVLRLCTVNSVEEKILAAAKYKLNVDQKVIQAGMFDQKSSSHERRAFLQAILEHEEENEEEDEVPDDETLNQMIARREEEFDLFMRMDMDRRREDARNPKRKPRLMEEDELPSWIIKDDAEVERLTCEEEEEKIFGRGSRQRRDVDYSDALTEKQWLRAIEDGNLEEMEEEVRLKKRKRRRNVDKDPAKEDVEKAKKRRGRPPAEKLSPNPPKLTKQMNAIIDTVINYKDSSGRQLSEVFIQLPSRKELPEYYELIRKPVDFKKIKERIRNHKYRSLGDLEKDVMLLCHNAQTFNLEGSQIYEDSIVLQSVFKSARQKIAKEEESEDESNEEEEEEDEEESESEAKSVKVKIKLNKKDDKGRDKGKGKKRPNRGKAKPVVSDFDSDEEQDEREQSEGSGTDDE

With `CCC(/C=C1\CCCn2c1nc(=O)c1c(Cl)cccc12)CC` [Compound 21, (E)-7-Chloro-4-(2-ethylbutylidene)-1,2,3,4-tetrahydro-6H-pyrido[1,2-a]quinazolin-6-one], the Kd on SMARCA2B came to 26 µM; at PB1(2), 5.4 µM; on PB1(5) it was 1.1 µM. The “selectivity for PB1(5) over SMARCA2B” value at PB1(5) was about 24 fold.
For `CCC(CC)C1CC12CCn1c2nc(=O)c2c(Cl)cccc21` (centres unmarked) [LM146, 6′-Chloro-2-(pentan-3-yl)-1′,2′-dihydro-5′H-spiro[cyclopropane-1,3′-pyrrolo[1,2-a]quinazolin]-5′-one], the Kd stood at 2.1 µM on SMARCA2B, 0.11 µM on PB1(2) and 0.061 µM on PB1(5). For the same molecule, at PB1(2) (from bromoSCAN KD values), the “selectivity for PB1(2) over SMARCA2B” value is given as about 19 fold. Besides, the “selectivity for PB1(5) over SMARCA2B” value on PB1(5) is about 34 fold. The “binding profile in bromoMAX panel” value in experiment [1] is “does not interact with bromodomains outside of sub-family VIII; also recorded: only binds to bromodomains within the sub-family VIII; also recorded: no binding to any bromodomains outside the sub-family VIII”.
On to `CCn1cc(-c2cccc(C(F)(F)F)c2)c2sc(C(=N)NC3CCS(=O)(=O)CC3)cc2c1=O` [I-BRD9], for which the “selectivity over a panel of other bromodomains” value in the experiment on BRD9 was “more than 70 fold”.

What is called Kd is the free concentration of one partner at which half of the binding sites on the other are occupied at equilibrium, for simple one-to-one binding.
